Consider 5 molecules from article PMC6272137, “Synthesis and Evaluation of Paeonol Derivatives as Potential Multifunctional Agents for the Treatment of Alzheimer’s Disease” (Molecules, 2015).

The target in one data set is T1, AChE from electric eel (Electrophorus electricus, UniProt O42275).
T1 construct: purchased Sigma Aldrich
Nature of the data set: biochemical. As to conditions: n = 3, pH 8.0, 37 °C, read-out: AChE Inhibition (IC50). As for the experimental part:
Acetylcholinesterase (AChE, E.C.3.1.1.7, from the electric eel), 5,5'-dithiobis-(2-nitrobenzoic acid) (DTNB), acetylthiocholine iodide (ATCI) and donepezil hydrochloride were purchased from Sigma Aldrich. […] Paeonol and 5a–5d were dissolved in DMSO and then diluted by phosphate buffer (pH 8.0) to seven different concentrations in the range of 10^−3–10^−9 M. AChE solutions were prepared in double-distilled water to 2.0 units/mL in 2 mL aliquots. The assay medium contained phosphate buffer, pH 8.0 (1 mL), 50 µL of 0.01 M DTNB, 10 µL of enzyme and 50 µL of acetylthiocholine iodide. Test compounds were added to assay solution and preincubated at 37 °C with enzyme for 15 min, followed by the addition of substrate. Activity was determined by measuring the increase in absorbance at 412 nm at 1 min intervals at 37 ± 0.2 °C. For determining the blank value, 50 µL buffer replaced the AChE solution.

A short description of data set [1]: DPPH free radical scavenging assay. As to conditions: read-out: DPPH Scavenging (IC50), concentration causing 50% loss of initial DPPH free radical, mean ± SD, n = 3, 60 min, methanol. On the technique in general: Loss of DPPH colour is used to gauge radical scavenging.
Protocol: Based on their interaction with DPPH (2,2-diphenyl-1-picrylhydrazyl) free radical, antioxidant activities of the new paeonol derivatives were screened. […] Paeonol is used as the positive control.
The stable radical DPPH was used as a reagent in this spectrophotometric assay. […] After a 60 min incubation period at room temperature in the dark, the absorbance was read at 517 nm against the corresponding blank. Inhibition of free radical DPPH in percent (I%) was calculated using the following Equation (1): (1) I%=(Ablank−Asample/Ablank)×100 Where Ablank is the absorbance of DPPH solution (control solution) against the blank, and Asample is the absorbance of the tested compound against the blank. Concentrations caused 50% loss of the initial DPPH free radical scavenging.
The subject of the next data set is PC12 cells. Nature of the data set: Protection of PC12 cells against H2O2-induced cell death (MTT assay). As to conditions: then 150 μM H2O2 for 5 h; for cell morphology (phase-contrast microscopy): 40 µM compound, 3 h preincubation. On the technique in general: Tetrazolium assays rely on reduction of a dye to a coloured formazan, in cell work by metabolically active cells.

Where two headings read alike, the source gives them in different places.

T1 sequence (O42275 24-633): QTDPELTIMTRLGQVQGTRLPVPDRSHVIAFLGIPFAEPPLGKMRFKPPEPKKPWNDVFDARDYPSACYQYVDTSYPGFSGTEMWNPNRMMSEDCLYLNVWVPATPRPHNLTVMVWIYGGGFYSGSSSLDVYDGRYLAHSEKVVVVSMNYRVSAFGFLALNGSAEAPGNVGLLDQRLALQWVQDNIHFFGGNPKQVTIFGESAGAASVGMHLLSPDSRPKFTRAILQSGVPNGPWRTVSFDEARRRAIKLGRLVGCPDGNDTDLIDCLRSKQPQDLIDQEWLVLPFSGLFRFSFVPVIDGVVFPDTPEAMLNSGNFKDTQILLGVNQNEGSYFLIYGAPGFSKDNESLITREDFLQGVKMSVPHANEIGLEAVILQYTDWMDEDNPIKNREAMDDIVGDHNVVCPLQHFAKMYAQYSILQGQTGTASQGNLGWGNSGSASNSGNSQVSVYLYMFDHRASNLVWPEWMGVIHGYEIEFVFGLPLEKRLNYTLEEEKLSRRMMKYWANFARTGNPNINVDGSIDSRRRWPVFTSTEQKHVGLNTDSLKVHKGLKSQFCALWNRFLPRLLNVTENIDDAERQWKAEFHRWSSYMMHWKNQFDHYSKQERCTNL

`COc1ccc(C(=O)CN2CCN(Cc3ccc(Cl)cc3)CC2)c(O)c1` [5d, 2-(4-(4-Chlorobenzyl)piperazin-1-yl)-1-(2-hydroxy-4-methoxypheny) ethanone]: the figures for the IC50 (on AChE from electric eel; in data set [1]) were 2.63 ± 0.153 µM and 187 ± 13.7 µM, respectively.

On to `COc1ccc(C(=O)CN2CCN(Cc3ccccc3)CC2)c(O)c1` [5a, 2-(4-Benzylpiperazin-1-yl)-1-(2-hydroxy-4-methoxyphenyl) ethanone], for which the IC50 (in general, the point on the concentration scale where inhibition reaches its midpoint) on AChE from electric eel was 1.59 ± 0.011 µM; in data set [1] it was 143 ± 8.83 µM.

Consider `COc1ccc(C(=O)CN2CCN(Cc3ccc(C)cc3)CC2)c(O)c1` [5b, 1-(2-Hydroxy-4-methoxyphenyl)-2-(4-(4-methylbenzyl)piperazin-1-yl) ethanone], for which the IC50 on AChE from electric eel was determined as 0.61 ± 0.009 µM; in data set [1], 158 ± 6.88 µM. The “cell morphology (phase-contrast microscopy)” value with PC12 cells is reported as “maintained normal cell morphology”.

As to `COc1ccc(C(C)=O)c(O)c1` [Paeonol, 2-hydroxy-4-methoxy-acetophenone], the IC50 in data set [1] turned out to be 310 ± 5.41 µM; in data set [1] (listed as paeonol) it was 310 µM. Moreover, in the data set on PC12 cells (5 μM compound, 3 h pretreatment), the “protective effect on PC12 cells (MTT)” value was “did not cause any apparent effects”. For the same molecule, the “cell morphology (phase-contrast microscopy)” value in the data set on PC12 cells was “maintained normal cell morphology”. Further, in the data set with PC12 cells (40 μM compound, 3 h pretreatment, control cells = 100%), the “protective effect (cell viability, MTT)” value is listed as 58.9%.

With `COc1ccc(C(=O)CN2CCN(Cc3ccc([N+](=O)[O-])cc3)CC2)c(O)c1` [5c, 1-(2-Hydroxy-4-methoxyphenyl)-2-(4-(4-nitrobenzyl)piperazin-1-yl) ethanone], the values for the IC50 (at AChE from electric eel; in data set [1]) were 7.04 ± 0.032 µM and 192 ± 8.06 µM, respectively.
